The source made the active and inactive calls. For most assays here, no stated cut-off is given here; in the data, actives have a measured EC50 and inactives only a lower limit.
Assays:
[1] = P. falciparum Dd2 growth inhibitors, dose response, SYBR Green, cherry-picked samples (AID 1159567); assay type: functional, cell-based
[2] = biological target: FAD-linked sulfhydryl oxidase ALR (Homo sapiens, UniProt P55789); experiment: inhibitors of human ALR sulfhydryl oxidase, dose response, biochemical, H2O2 detection, luminescence, cherry-pick (AID 493248)
Sequence of FAD-linked sulfhydryl oxidase ALR (P55789 whole entry): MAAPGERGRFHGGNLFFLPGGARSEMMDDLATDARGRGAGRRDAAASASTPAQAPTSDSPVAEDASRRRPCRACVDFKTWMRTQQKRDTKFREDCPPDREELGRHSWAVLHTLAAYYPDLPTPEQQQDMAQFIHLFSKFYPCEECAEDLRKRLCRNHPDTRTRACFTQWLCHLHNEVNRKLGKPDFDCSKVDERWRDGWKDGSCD

[3] = Luminescence Cell-Based Dose Confirmation HTS to Identify Inhibitors of Platelet Dense Granule Release. [Related pubchem assays: 1663 (Primary HTS), 1678 (Summary of Project)]; assay type: functional
[4] = biological target: Luciferin 4-monooxygenase (Photinus pyralis, UniProt P08659); experiment: firefly luciferase enzyme inhibitors, dose response, biochemical, luminescence (AID 1891)
Sequence of Luciferin 4-monooxygenase (P08659 whole entry): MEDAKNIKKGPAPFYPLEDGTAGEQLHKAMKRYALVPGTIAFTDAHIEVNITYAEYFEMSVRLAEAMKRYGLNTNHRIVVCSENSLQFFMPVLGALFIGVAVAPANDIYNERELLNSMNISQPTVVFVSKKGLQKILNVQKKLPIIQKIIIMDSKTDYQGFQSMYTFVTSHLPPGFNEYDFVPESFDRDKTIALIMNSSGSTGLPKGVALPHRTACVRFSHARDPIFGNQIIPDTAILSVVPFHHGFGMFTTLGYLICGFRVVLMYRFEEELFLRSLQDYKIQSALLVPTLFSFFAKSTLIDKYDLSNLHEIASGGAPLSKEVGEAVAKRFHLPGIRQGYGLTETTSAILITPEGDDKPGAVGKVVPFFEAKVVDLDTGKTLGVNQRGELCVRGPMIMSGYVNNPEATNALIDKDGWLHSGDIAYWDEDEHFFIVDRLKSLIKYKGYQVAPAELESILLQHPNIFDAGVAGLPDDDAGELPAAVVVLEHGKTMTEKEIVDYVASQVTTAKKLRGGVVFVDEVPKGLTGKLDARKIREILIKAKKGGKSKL

BJ [5] = experiment: cytotoxicity toward BJ-TERT-LT-ST fibroblasts, dose response, cell-based, RAS-independent, luminescence (AID 1935); assay type: functional; details: Homo sapiens;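 further: BJ fibroblasts immortalized with TERT plus LT and ST oncogenes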
BJ [6] = experiment: cells; assay type: functional, cell-based; details: Homo sapiens
[7] = cytotoxicity toward DRD oncogenic fibroblasts, dose response, cell-based, non-viral oncogenic, luminescence (AID 1934); assay type: functional; details: Homo sapiens
BJ [8] = experiment: cytotoxicity toward BJ-TERT fibroblasts, dose response, cell-based, RAS-independent, luminescence (AID 1933); assay type: functional; details: Homo sapiens
[9] = biological target: T1, Corticotropin-releasing factor receptor 2/Corticotropin-releasing factor-binding protein (Homo sapiens, UniProt P24387+Q13324); experiment: activators of CRF receptor 2 with binding protein – uHTS hits, confirmation (AID 602473); assay type: functional; details: read-out: EC50_Mean
T1 sequence (Q13324 whole entry): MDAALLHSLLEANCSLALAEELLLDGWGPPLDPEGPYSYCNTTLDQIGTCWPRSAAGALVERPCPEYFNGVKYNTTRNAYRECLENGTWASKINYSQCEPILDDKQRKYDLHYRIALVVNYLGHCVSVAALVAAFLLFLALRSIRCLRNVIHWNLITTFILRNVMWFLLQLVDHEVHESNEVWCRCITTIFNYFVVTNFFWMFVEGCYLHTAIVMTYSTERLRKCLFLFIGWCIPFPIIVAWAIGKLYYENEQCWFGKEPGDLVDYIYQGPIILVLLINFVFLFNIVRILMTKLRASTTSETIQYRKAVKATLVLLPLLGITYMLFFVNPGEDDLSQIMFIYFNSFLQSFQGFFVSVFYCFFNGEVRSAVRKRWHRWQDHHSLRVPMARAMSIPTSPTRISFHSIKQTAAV
T1 sequence (P24387 whole entry): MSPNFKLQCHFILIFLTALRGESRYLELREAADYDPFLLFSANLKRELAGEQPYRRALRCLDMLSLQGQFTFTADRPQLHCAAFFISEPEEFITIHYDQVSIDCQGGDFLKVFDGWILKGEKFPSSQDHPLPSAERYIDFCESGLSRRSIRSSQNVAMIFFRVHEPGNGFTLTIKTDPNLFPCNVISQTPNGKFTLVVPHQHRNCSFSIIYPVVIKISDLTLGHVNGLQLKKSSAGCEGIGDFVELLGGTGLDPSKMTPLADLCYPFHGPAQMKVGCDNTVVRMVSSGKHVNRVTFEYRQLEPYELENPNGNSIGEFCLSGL

[10] = biological target: T1, Corticotropin-releasing factor receptor 2/Corticotropin-releasing factor-binding protein; experiment: Dose Response confirmation of uHTS hits for small molecule antagonists of the CRF-binding protein and CRF-R2 receptor complex.; assay type: functional; details: read-out: IC50_Mean
Protein skinhead-1 = biological target: T2, Protein skinhead-1 (Caenorhabditis elegans, UniProt P34707); assay type: functional
T2 sequence (P34707 whole entry): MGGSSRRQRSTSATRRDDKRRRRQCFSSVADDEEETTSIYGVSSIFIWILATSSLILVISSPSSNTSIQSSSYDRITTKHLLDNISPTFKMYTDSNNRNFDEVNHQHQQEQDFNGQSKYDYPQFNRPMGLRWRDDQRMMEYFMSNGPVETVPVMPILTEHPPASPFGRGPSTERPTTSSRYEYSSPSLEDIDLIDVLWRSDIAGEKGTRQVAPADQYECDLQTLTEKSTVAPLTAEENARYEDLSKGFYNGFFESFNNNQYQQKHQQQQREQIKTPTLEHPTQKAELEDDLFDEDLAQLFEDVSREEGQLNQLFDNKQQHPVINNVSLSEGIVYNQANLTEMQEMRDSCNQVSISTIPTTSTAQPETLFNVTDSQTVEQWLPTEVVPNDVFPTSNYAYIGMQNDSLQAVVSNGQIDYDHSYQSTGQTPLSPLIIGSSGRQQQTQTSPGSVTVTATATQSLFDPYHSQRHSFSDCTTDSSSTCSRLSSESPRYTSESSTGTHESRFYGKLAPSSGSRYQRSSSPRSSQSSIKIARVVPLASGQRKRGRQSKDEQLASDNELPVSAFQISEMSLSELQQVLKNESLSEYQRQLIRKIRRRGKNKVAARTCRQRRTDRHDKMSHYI

Streptococcus = experiment: Group A Streptococcus viability loss, dose response, counter-screen for streptokinase expression inhibitor project, luminescence, BacTiterGlo (AID 1915); assay type: functional, organism-based;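 further: potency for reduction of bacterial viability or growth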
Streptokinase A = biological target: T3, Streptokinase A (Streptococcus pyogenes serotype M1, UniProt P10520); experiment: S. pyogenes streptokinase expression inhibitors, potency, dose response, plasminogen activation absorbance, OD405 (AID 1914); assay type: functional, Streptococcus pyogenes M1 GAS;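 further: secreted streptokinase activity via plasminogen activation per viability signal from cell pellet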
T3 sequence (P10520 whole entry): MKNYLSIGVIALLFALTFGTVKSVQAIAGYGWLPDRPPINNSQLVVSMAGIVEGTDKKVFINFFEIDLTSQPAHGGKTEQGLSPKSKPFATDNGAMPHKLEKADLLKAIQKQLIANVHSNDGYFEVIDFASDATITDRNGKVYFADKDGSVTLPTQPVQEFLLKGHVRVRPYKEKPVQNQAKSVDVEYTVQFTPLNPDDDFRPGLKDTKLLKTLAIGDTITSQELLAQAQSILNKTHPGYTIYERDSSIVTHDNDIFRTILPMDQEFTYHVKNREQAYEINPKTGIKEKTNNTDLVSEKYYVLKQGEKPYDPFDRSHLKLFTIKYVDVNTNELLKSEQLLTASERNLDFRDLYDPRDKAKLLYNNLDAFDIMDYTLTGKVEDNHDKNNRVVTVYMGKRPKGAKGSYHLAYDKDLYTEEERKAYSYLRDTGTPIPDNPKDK

[11] = tested on: Streptococcus sp. 'group A'; experiment: growth inhibition of control SK(-) GAS strain, dose response, counter-screen for streptokinase expression inhibitor project, luminescence, kanamycin, BacTiterGlo, confirmation (AID 1900); assay type: functional, organism-based
[12] = C. albicans growth with fluconazole, confirmation, fluorescence, retest (AID 2467); assay type: functional, cell-based
[13] = NIH-3T3 fibroblast cytotoxicity, dose response, cytotoxicity control, cell-based, fluorescence, Alamar Blue, secondary assay (AID 2327); assay type: functional;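 further: NIH-3T3 mouse fibroblasts cultured with fluconazole at 8 µg/mL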
[14] = Luminescence Cell-Based Dose Confirmation HTS to Identify Activators of 5'UTR Stem-Loop Driven Alpha-Synuclein mRNA Translation in H4 Neuroglioblastoma Cells. [Related pubchem assays: 1829 (Project Summary), 1814 (Primary HTS)]; assay type: functional
H4 = experiment: Luminescence Cell-Based Dose Response HTS to Identify Activators of 5'UTR Stem-Loop Driven Prion Protein mRNA Translation in H4 Neuroglioblastoma Cells. [Related pubchem assays: 1829 (Project Summary), 1814 (Primary HTS)]; assay type: functional; details: Homo sapiens
[15] = Luminescence Cell-Based Dose Response HTS to Identify Activators of Luciferase Translation or Activity in H4 […] Cells. [Related pubchem assays: 1829 (Project Summary), 1814 (Primary HTS)]; assay type: functional
[16] = biological target: T4, Zinc finger protein mex-5 (Caenorhabditis elegans, UniProt Q9XUB2); experiment: MEX-5/TCR-2 RNA interaction inhibitors, dose response, biochemical, C. elegans, fluorescence polarization (AID 1960)
T4 sequence (Q9XUB2 whole entry): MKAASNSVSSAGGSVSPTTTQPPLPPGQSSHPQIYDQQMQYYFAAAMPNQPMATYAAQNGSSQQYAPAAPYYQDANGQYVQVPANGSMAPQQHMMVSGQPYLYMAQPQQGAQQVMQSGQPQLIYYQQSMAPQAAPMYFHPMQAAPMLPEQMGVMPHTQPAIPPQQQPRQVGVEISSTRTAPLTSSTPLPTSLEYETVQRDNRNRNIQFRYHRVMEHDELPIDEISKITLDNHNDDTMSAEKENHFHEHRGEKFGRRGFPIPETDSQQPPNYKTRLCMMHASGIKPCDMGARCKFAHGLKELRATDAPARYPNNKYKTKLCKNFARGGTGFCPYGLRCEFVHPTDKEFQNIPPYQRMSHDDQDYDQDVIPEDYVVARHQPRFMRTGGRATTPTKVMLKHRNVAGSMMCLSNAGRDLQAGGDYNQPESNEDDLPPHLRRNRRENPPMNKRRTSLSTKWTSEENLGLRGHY

[17] = biological target: T5, RNA-binding protein pos-1 (Caenorhabditis elegans, UniProt G5EF15); experiment: inhibitors of POS-1/mex-3 RNA binding, dose response, biochemical, fluorescence polarization (AID 1964);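 further: purified POS-1 fused to maltose binding protein made in E. coli; potency of compounds blocking POS-1 binding to fluorescent RNA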
T5 sequence (G5EF15 whole entry): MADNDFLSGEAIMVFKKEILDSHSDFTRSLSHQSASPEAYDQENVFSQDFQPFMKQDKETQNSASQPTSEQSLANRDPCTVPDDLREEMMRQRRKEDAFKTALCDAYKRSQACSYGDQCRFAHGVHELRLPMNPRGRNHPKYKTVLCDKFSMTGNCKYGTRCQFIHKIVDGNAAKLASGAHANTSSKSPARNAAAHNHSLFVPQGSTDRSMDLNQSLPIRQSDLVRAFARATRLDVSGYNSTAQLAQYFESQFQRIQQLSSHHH

COc1cccc(CN2CC3(CN(Cc4ccccn4)C3)c3c([nH]c4cc(OC)ccc34)[C@H]2CO)c1
AC50 [1]: 5.33 µM (active)

CC1(CCC(=O)N2CCCC(Nc3ccc(F)cc3)C2)CC1 (stereo not drawn)
AC50 [2]: 5.27 µM (active)

Cn1c(=O)n(C)c2cc(S(=O)(=O)NCc3ccccc3)ccc21
EC50 [3]: > 112 µM (not active) | EC50 [4]: > 112 µM (not active)

CC(C)(O)C#Cc1ccc([C@H]2[C@H](CO)N3CCCCN(C(=O)c4ccc(F)cc4)C[C@@H]23)cc1
AC50 [1]: 15.3 µM (active)

Cc1ccc(-n2nc(C)c(/C=N/c3ccc(S(=O)(=O)Nc4nccs4)cc3)c2O)cc1
EC50 (BJ [5]): > 150 µM (not active) | EC50 (BJ [6]): > 150 µM (not active) | EC50 [7]: 24 µM (active) | EC50 (BJ [8]): 12.8 µM (active)

c1ccc(-c2cc3nccc(-c4ccccn4)n3n2)cc1
EC50 [9]: > 53 µM (inactive) | IC50 [10]: > 47.1 µM (inactive) | IC50 (Protein skinhead-1): 47 µM (active)

Cn1cc(S(=O)(=O)N2CCCC2)cc1C(=O)N1CCN(c2cccc(Cl)c2)CC1
EC50 [3]: > 112 µM (not active) | EC50 [4]: > 112 µM (not active)

Cc1ccc(NC2CCCN(C(=O)c3cn4cccc(C)c4n3)C2)cc1C (stereo not drawn)
AC50 [2]: 9.91 µM (active)

CCOC(=O)c1sc(NN=C2C(=O)CC(C)(C)CC2=O)c(C(=O)OCC)c1C
EC50 [3]: 20.4 µM (active) | EC50 [4]: > 112 µM (not active)

CCCC(=O)Nc1ccc2c(c1)nc(CN1CCN(C(=O)OCC)CC1)n2CC
EC50 (BJ [5]): > 75 µM (inconclusive) | EC50 (BJ [6]): 122 µM (active) | EC50 [7]: 18 µM (active) | EC50 (BJ [8]): 15.4 µM (inconclusive)

COc1ccccc1NC(=O)c1cc([N+](=O)[O-])ccc1N1CCOCC1
EC50 [3]: > 112 µM (not active) | EC50 [4]: > 112 µM (not active)

O=C(NN=C1CCCC1)c1cc(-c2ccccc2)[nH]n1
AC50 [2]: 16.9 µM (active)

COc1ccccc1NC1=NC(=O)/C(=C/c2ccc(N(C)C)cc2)S1
EC50 (BJ [5]): 64.2 µM (inconclusive) | EC50 (BJ [6]): 59 µM (active) | EC50 (Streptococcus): 46.7 µM (active) | EC50 (Streptokinase A): > 150 µM (not active) | EC50 [11]: 15.1 µM (active) | EC50 [7]: 1.45 µM (active) | EC50 (BJ [8]): 1.91 µM (active)

COc1ccc(C(=O)Nc2ccccc2C(=O)N/N=C/c2ccco2)cc1
EC50 [3]: 4.14 µM (active) | EC50 [4]: 0.329 µM (active)

O=C(NNS(=O)(=O)c1ccc(F)cc1)c1cc2ccccc2cc1O
AC50 [2]: 4.07 µM (active)

COc1ccc(C(=O)Nc2ccccc2C(=O)N/N=C/c2ccccc2OC)cc1
EC50 [3]: 1.11 µM (active) | EC50 [4]: 0.286 µM (active)

O=C(Cc1ccccc1)Nc1nonc1NC(=O)c1ccccc1
EC50 [12]: 3.18 µM (active) | EC50 [13]: > 150 µM (inactive)

O=C(Nc1ccc(F)cc1)Nc1ccccc1F
EC50 [3]: 12.1 µM (active) | EC50 [4]: 6.85 µM (active)

CN(C)c1ccc2c(c1)[C@@H]1C[C@H](CC(=O)N3CCc4ccccc4C3)O[C@@H](CO)[C@@H]1O2
AC50 [1]: 7.8 µM (active)

COc1ccc(-c2cc(C(F)F)n3ncc(C(=O)n4ccnc4C)c3n2)cc1
EC50 (BJ [5]): > 150 µM (inconclusive) | EC50 (BJ [6]): 15.3 µM (active) | EC50 [7]: 7.6 µM (active) | EC50 (BJ [8]): 7.36 µM (inconclusive)

C=CCCC(=O)N1CCC(n2nccc2NC(=O)c2ccc(OC)cc2)CC1
EC50 [9]: > 53 µM (inactive) | IC50 [10]: > 47.1 µM (inactive)

CC(OC(=O)c1ccc(-c2ccc(O)cc2)cc1)C(=O)NC1CCCCC1C (stereo not drawn)
EC50 [9]: > 53 µM (inactive) | IC50 [10]: > 47.1 µM (inactive)

COc1ccc(N2CCN(C(=O)c3ccc(SC)cc3OC)CC2)cc1
AC50 [2]: 6.05 µM (active)

c1ccc(CN2CCc3nc4ccccc4cc3C2)cc1
EC50 [12]: > 38 µM (not active) | EC50 [14]: 0.215 µM (active) | EC50 (H4): 52.7 µM (active) | EC50 [15]: 33.8 µM (active) | EC50 [13]: > 160 µM (inconclusive)

COc1ccc(NC(=O)c2cn(CCC#N)nc2-c2ccc([N+](=O)[O-])cc2)cc1
EC50 (BJ [5]): > 150 µM (not active) | EC50 (BJ [6]): > 150 µM (not active) | EC50 [7]: > 150 µM (not active) | EC50 (BJ [8]): > 150 µM (not active)

COC(=O)C1=C(C)N=C2SC(C#N)=C(N)N2C1c1cccc(OC)c1 (stereo not drawn)
EC50 [16]: > 300 µM (not active) | EC50 [3]: > 112 µM (not active) | EC50 [4]: > 112 µM (not active) | EC50 [17]: > 300 µM (not active)
